Columns and labels:
M. tuberculosis H37Rv = type: cell-based
[1] = test system: drug susceptible and drug-resistant M. tuberculosis strains; type: cell-based

Structure (SMILES)	agar MIC (M. tuberculosis H37Rv) [µM]	fold increase of MIC of resistant mutant over WT H37Rv (M. tuberculosis H37Rv)	frequency of resistance (FOR) (M. tuberculosis H37Rv)	fold increase in MIC (M. tuberculosis H37Rv)	MICs (range over strains) [1] [µM]
O=C(O)CCCCCC1NC(=O)CS1 (racemic) [(±)-acidomycin, 6-(4-Oxothiazolidin-2-yl)hexanoic acid]	12	approximately 16 fold	less than or equal to 1 × 10^−8	–	–
O=C(O)CCCCCC1NC(=O)CS1 (stereo not drawn) [acidomycin]	–	16 fold	–	two- to three-fold	0.096 to 6.2

From paper PMC6724193 (ACS infectious diseases, 2019)
